Assay results: the supplement of paper PMC10307832

What was measured:
Test in all cases: relative viability (nuclei count vs DMSO), 5 days (fraction); higher = more cells survive
Dactolisib + Crizotinib = compound: Cn1c(=O)n(-c2ccc(C(C)(C)C#N)cc2)c2c3cc(-c4cnc5ccccc5c4)ccc3ncc21 [Dactolisib] + C[C@@H](Oc1cc(-c2cnn(C3CCNCC3)c2)cnc1N)c1c(Cl)ccc(F)c1Cl [Crizotinib] (partner 1 µM)
Outline: (§1)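 Lung cancer cell lines in 1536-well plates got either a single drug or a fixed anchor-drug dose together with five library-drug doses (not always all listed) in √10 steps, by pin tool, on the day after seeding. Nuclei were counted after 5 days, and relative viability is the treated-to-vehicle ratio of nuclei counts. Values are medians of duplicate plates.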

Dactolisib + Foretinib = compound: Cn1c(=O)n(-c2ccc(C(C)(C)C#N)cc2)c2c3cc(-c4cnc5ccccc5c4)ccc3ncc21 [Dactolisib] + COc1cc2c(Oc3ccc(NC(=O)C4(C(=O)Nc5ccc(F)cc5)CC4)cc3F)ccnc2cc1OCCCN1CCOCC1 [Foretinib] (partner 0.25 µM)
Outline: as §1

AZ505 + Dasatinib = compound: C1CCC(CC1)N(CCNCCC2=C3C(=C(C=C2)O)NC(=O)CO3)C(=O)CCNCCC4=CC(=C(C=C4)Cl)Cl [AZ505] + Cc1nc(Nc2ncc(C(=O)Nc3c(C)cccc3Cl)s2)cc(N2CCN(CCO)CC2)n1 [Dasatinib] (partner 0.075 µM)
Outline: as §1

AZ505 + Alpelisib = compound: C1CCC(CC1)N(CCNCCC2=C3C(=C(C=C2)O)NC(=O)CO3)C(=O)CCNCCC4=CC(=C(C=C4)Cl)Cl [AZ505] + Cc1nc(NC(=O)N2CCC[C@H]2C(N)=O)sc1-c1ccnc(C(C)(C)C(F)(F)F)c1 [Alpelisib] (partner 2 µM)
Outline: as §1

Cell Line	relative viability (Dactolisib + Crizotinib; first compound 0.002 µM)	relative viability (Dactolisib + Crizotinib; first compound 0.006325 µM)	relative viability (Dactolisib + Crizotinib; first compound 0.02 µM)	relative viability (Dactolisib + Crizotinib; first compound 0.06325 µM)	relative viability (Dactolisib + Crizotinib; first compound 0.2 µM)	relative viability (Dactolisib + Foretinib; first compound 0.002 µM)	relative viability (Dactolisib + Foretinib; first compound 0.006325 µM)	relative viability (Dactolisib + Foretinib; first compound 0.02 µM)	relative viability (Dactolisib + Foretinib; first compound 0.06325 µM)	relative viability (Dactolisib + Foretinib; first compound 0.2 µM)	relative viability (AZ505 + Dasatinib; first compound 0.08 µM)	relative viability (AZ505 + Dasatinib; first compound 0.253 µM)	relative viability (AZ505 + Dasatinib; first compound 0.8 µM)	relative viability (AZ505 + Dasatinib; first compound 2.53 µM)	relative viability (AZ505 + Dasatinib; first compound 8 µM)	relative viability (AZ505 + Alpelisib; first compound 0.08 µM)	relative viability (AZ505 + Alpelisib; first compound 0.253 µM)	relative viability (AZ505 + Alpelisib; first compound 0.8 µM)	relative viability (AZ505 + Alpelisib; first compound 2.53 µM)	relative viability (AZ505 + Alpelisib; first compound 8 µM)
201T	1.03	1.04	0.998	0.977	0.913	0.916	1.11	1.06	0.636	0.491	0.589	0.548	0.627	0.601	0.535	0.942	1.01	0.973	1.04	1.05
A549	0.855	0.653	0.569	0.162	0.0827	1.03	0.84	0.678	0.202	0.21						0.796	0.666	0.872	0.79	0.795
A-427	0.93	0.856	0.844	0.615	0.48	1.2	1.05	0.873	0.56	0.46	0.659	0.693	0.622	0.749	0.682	1.08	1.11	1.04	1.01	1.08
ABC-1	0.632	0.97	0.908	0.765	0.396	1.03	1.11	0.665	0.427	0.5	0.539	0.524	0.542	0.58	0.515	0.881	1.01	1.1	1.26	1.02
BEN	0.785	0.77	0.859	0.467	0.296	0.898	0.632	0.647	0.57	0.422	0.359	0.327	0.386	0.355	0.296	0.947	1.01	0.959	1.02	1.2
CAL-12T	0.624	0.661	0.425	0.216	0.215	1.25	1.09	0.972	0.898	0.241	0.466	0.585	0.381	0.413	0.472	1.05	1.23	1.23	1.24	1.33
COR-L23	0.787	0.604	0.619	0.283	0.165	1.2	0.982	0.948	0.369	0.34	0.351	0.427	0.358	0.383	0.475	0.532	0.646	0.463	0.624	0.598
COR-L 105	0.85	0.874	0.561	0.645	0.283	0.926	1	0.832	0.859	0.417	0.383	0.352	0.318	0.342	0.367	0.897	1.06	1.02	0.954	0.954
